{"source": "patent US20080167324A1", "about": "“Thiazolymethyl and Oxazolylmethyl Heteroaryl Derivatives” (priority 2005, published 2008)", "biological_target": "benzodiazepine site of the GABAA receptor", "experiment": "Ligand binding assay (3H-Ro15-1788 displacement, purified rat cortical membranes)", "settings": "previously determined; used in the Cheng-Prusoff equation; read-out: Kd, binding dissociation constant of the radioligand", "data": [{"compound": "CCOC(=O)c1ncn2c1CN(C)C(=O)c1cc(F)ccc1-2", "note": "[^3H-Ro15-1788]", "values": [{"measurement": "Kd", "result": 1, "unit": "nM"}]}]}
